From ChEMBL document CHEMBL1932930, “Synthesis and biological assessment of novel 2-thiazolylhydrazones and computational analysis of their recognition by monoamine oxidase B” (Eur J Med Chem, 2012)

Columns and labels:
[1] = molecular target: T1, Amine oxidase [flavin-containing] B (Homo sapiens, UniProt P27338); assay: biochemical
T1 sequence (P27338 whole entry): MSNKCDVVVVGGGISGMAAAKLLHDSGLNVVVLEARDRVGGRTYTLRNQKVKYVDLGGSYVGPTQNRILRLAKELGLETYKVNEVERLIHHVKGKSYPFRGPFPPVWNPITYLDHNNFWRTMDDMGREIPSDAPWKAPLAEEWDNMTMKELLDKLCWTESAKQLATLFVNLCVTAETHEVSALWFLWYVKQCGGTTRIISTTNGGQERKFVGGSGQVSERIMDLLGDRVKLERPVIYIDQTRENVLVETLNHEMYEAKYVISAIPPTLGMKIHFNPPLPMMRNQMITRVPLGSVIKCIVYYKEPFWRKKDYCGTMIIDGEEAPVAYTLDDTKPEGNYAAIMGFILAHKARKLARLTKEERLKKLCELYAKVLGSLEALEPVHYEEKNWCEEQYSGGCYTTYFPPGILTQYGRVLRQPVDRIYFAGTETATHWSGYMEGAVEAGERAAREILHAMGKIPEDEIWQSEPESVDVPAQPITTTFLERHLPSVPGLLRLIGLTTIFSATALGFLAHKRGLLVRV
Description: Inhibition of human recombinant MAO-B expressed in baculovirus infected BTI-TN-5B1-4 insect cells assessed as inhibition of hydrogen peroxide production from p-tryptamine after 15 mins by fluorimetric method

[2] = molecular target: T2, Amine oxidase [flavin-containing] A (Homo sapiens, UniProt P21397); assay: Inhibition of human recombinant MAO-A expressed in baculovirus infected BTI-TN-5B1-4 insect cells assessed as inhibition of hydrogen peroxide production from […] after 15 mins by fluorimetric method; conditions: bti-tn-5b1-4, 0.25 h
T2 sequence (P21397 whole entry): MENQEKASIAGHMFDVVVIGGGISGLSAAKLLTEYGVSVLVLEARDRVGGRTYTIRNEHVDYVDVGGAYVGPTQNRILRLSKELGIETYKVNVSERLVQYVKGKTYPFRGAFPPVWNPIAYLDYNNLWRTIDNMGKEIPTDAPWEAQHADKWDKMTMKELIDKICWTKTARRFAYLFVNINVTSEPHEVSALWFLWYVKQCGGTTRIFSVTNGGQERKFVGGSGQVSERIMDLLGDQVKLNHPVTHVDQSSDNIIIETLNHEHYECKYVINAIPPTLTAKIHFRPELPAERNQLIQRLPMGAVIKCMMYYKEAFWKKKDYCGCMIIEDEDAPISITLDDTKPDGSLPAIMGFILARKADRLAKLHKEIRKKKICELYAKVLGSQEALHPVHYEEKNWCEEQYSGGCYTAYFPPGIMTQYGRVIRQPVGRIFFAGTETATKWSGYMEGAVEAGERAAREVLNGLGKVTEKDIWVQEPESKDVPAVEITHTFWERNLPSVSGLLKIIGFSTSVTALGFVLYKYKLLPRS

[3] = molecular target: T2, Amine oxidase [flavin-containing] A; assay: Inhibition of human recombinant MAO-A expressed in baculovirus infected BTI-TN-5B1-4 insect cells assessed as inhibition of hydrogen peroxide production from […] at 100 uM after 15 mins by fluorimetric method; conditions: for inhibition (INH): human, bti-tn-5b1-4, 0.25 h, 100 µM; for inhibition at 100 µM: BTI-TN-5B1-4, human, 0.25 h
[4] = molecular target: T1, Amine oxidase [flavin-containing] B; assay: Inhibition of human recombinant MAO-B expressed in baculovirus infected BTI-TN-5B1-4 insect cells assessed as inhibition of hydrogen peroxide production from […] at 100 uM after 15 mins by fluorimetric method; conditions: BTI-TN-5B1-4, human, 0.25 h
[5] = molecular target: T1, Amine oxidase [flavin-containing] B; assay: Inhibition of human recombinant MAO-B expressed in baculovirus infected BTI-TN-5B1-4 insect cells assessed as inhibition of hydrogen peroxide production from […] at 1 mM after 15 mins by fluorimetric method; conditions: bti-tn-5b1-4, 0.25 h, 1000 µM

SMILES: Cc1ccc(/C=N/Nc2nc(-c3ccc(F)cc3)cs2)cc1
- IC50 [1]: 44700 nM
- inhibition (INH) [2]: Dose-dependent effect
- inhibition (INH) [3]: Not Active

SMILES: Cc1ccc(/C=N/Nc2nc(-c3ccc(Cl)cc3)cs2)cc1
- inhibition at 100 µM [4]: 40%
- inhibition (INH) [2]: Dose-dependent effect
- inhibition (INH) [3]: Not Active

SMILES: Cc1ccccc1/C=N/Nc1nc(-c2ccc(Cl)cc2)cs1
- inhibition at 100 µM [4]: 40%
- inhibition (INH) [2]: Dose-dependent effect
- inhibition at 100 µM [3]: 40%

SMILES: COc1ccc(/C=N/Nc2nc(-c3ccc(F)cc3)cs2)cc1OC
- IC50 [1]: 2390 nM
- inhibition (INH) [2]: Dose-dependent effect
- inhibition at 100 µM [3]: 40%

SMILES: Cc1ccccc1/C=N/Nc1nc(-c2ccc(F)cc2)cs1
- IC50 [1]: 190 nM
- inhibition (INH) [2]: Dose-dependent effect
- inhibition at 100 µM [3]: 40%

SMILES: COc1ccc(/C=N/Nc2nc(-c3ccc(Cl)cc3)cs2)cc1
- inhibition at 100 µM [4]: 40%
- inhibition (INH) [2]: Dose-dependent effect
- inhibition at 100 µM [3]: 40%

SMILES: C#CCN(C)CCCOc1ccc(Cl)cc1Cl [CLORGILINE]
- inhibition (INH) [2]: Dose-dependent effect

SMILES: Fc1ccc(-c2csc(N/N=C/c3ccc(Cl)cc3)n2)cc1
- IC50 [1]: 1320 nM
- inhibition (INH) [2]: Dose-dependent effect
- inhibition at 100 µM [3]: 40%

SMILES: O=C(NCCN1CCOCC1)c1ccc(Cl)cc1 [MOCLOBEMIDE]
- inhibition (INH) [5]: Not Active
- inhibition (INH) [2]: Dose-dependent effect

SMILES: Clc1ccc(-c2csc(N/N=C/c3ccccc3)n2)cc1
- inhibition at 100 µM [4]: 40%
- inhibition (INH) [2]: Dose-dependent effect
- inhibition at 100 µM [3]: 40%

SMILES: Clc1ccc(/C=N/Nc2nc(-c3ccc(Cl)cc3)cs2)cc1
- inhibition at 100 µM [4]: 40%
- inhibition (INH) [2]: Dose-dependent effect
- inhibition at 100 µM [3]: 40%

SMILES: COc1ccc(/C=N/Nc2nc(-c3ccc(F)cc3)cs2)cc1
- IC50 [1]: 9240 nM
- inhibition (INH) [2]: Dose-dependent effect
- inhibition at 100 µM [3]: 40%

SMILES: Fc1ccc(-c2csc(N/N=C/c3ccccc3)n2)cc1
- IC50 [1]: 790 nM
- inhibition (INH) [2]: Dose-dependent effect
- inhibition at 100 µM [3]: 40%

SMILES: COc1ccc(/C=N/Nc2nc(-c3ccc(Cl)cc3)cs2)cc1OC
- inhibition at 100 µM [4]: 40%
- inhibition (INH) [2]: Dose-dependent effect
- inhibition at 100 µM [3]: 40%
